Measured values from publication PMC7006542, “Characterization of a Plastoglobule-Localized SOUL4 Heme-Binding Protein in Arabidopsis thaliana” (Frontiers in Plant Science, 2020).

Target: T1, recombinant maize (Zea mays) CK2 a-subunit (Biaffin) (Zea mays, UniProt P28523)
T1 construct: gene ACK2; commercial recombinant catalytic alpha subunit (Biaffin)
Experiment: in vitro kinase assay, SDS-PAGE and phosphorimager
Format: biochemical
Settings: protein substrate recombinant AtSOUL4 (3 µg); 25 mM Tris-HCl pH 8.0, 5 mM MgCl2, 1 mM DTT, 25 °C, 30 min; labelled compound; mere turnover

T1 sequence (P28523 whole entry): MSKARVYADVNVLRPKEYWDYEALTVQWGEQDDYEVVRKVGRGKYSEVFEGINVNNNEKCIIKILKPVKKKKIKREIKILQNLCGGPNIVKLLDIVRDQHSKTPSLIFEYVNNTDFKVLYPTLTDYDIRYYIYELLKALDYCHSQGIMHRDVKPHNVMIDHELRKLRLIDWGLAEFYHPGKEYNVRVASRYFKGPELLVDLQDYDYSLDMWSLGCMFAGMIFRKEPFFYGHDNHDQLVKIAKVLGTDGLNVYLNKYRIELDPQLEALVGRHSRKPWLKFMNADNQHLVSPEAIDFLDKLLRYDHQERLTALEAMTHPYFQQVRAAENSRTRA

Nc1ncnc2c1ncn2[C@@H]1O[C@H](COP(=O)(O)OP(=O)(O)OP(=O)(O)O)[C@@H](O)[C@H]1O [ATP]
in vitro kinase assay, SDS-PAGE and phosphorimager: revealing phosphorylation of SOUL4 both by recombinant maize CKII and stromal fraction
